# Reference: ChEMBL document CHEMBL5036305, “Modulation of the Passive Permeability of Semipeptidic Macrocycles: N- and C-Methylations Fine-Tune Conformation and Properties” (J Med Chem, 2021)
# Assay: Apparent permeability across apical to basolateral side in human Caco-2 cells measured after 60 to 120 mins
# Format: ADME, cell-based
# Conditions: time 60-120 min
smiles,measurement,value
CC(C)CN1CC(=O)N[C@@H](Cc2ccccc2)C(=O)NCCC[C@@H](C)C(=O)N[C@@H](C)C1=O,permeability,Permeable
